According to the supplement of paper PMC10307832:

How the values were obtained:
Assay in all cases: relative viability (nuclei count vs DMSO), 5 days (fraction); higher = more cells survive
Cediranib + Alpelisib = compound: COc1cc2c(Oc3ccc4[nH]c(C)cc4c3F)ncnc2cc1OCCCN1CCCC1 [Cediranib] + Cc1nc(NC(=O)N2CCC[C@H]2C(N)=O)sc1-c1ccnc(C(C)(C)C(F)(F)F)c1 [Alpelisib] (partner 2 µM)
Procedure, shortened: (§1)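 The day after seeding in 1536-well plates, lung cancer cell lines were treated by pin tool with a single drug, or with a fixed anchor-drug dose together with five library-drug doses (not always all listed) in √10 steps. After 5 days, a combined fix-and-stain solution (final 0.05% Triton X-100, 1% formaldehyde, 1 ug/ml Hoechst) was added. Nuclei counted on 4× images gave relative viability as treated counts over vehicle counts, reported as the median of duplicate plates.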

Decitabine + Foretinib = compound: Nc1ncn([C@H]2C[C@H](O)[C@@H](CO)O2)c(=O)n1 [Decitabine] + COc1cc2c(Oc3ccc(NC(=O)C4(C(=O)Nc5ccc(F)cc5)CC4)cc3F)ccnc2cc1OCCCN1CCOCC1 [Foretinib] (partner 0.25 µM)
Procedure, shortened: as §1

Decitabine + Pictilisib = compound: Nc1ncn([C@H]2C[C@H](O)[C@@H](CO)O2)c(=O)n1 [Decitabine] + CS(=O)(=O)N1CCN(Cc2cc3nc(-c4cccc5[nH]ncc45)nc(N4CCOCC4)c3s2)CC1 [Pictilisib] (partner 1 µM)
Procedure, shortened: as §1

Decitabine + Tozasertib = compound: Nc1ncn([C@H]2C[C@H](O)[C@@H](CO)O2)c(=O)n1 [Decitabine] + Cc1cc(Nc2cc(N3CCN(C)CC3)nc(Sc3ccc(NC(=O)C4CC4)cc3)n2)n[nH]1 [Tozasertib] (partner 0.1 µM)
Procedure, shortened: as §1

UMC-11
relative viability (Cediranib + Alpelisib; first compound 0.04 µM): 1.06 | relative viability (Cediranib + Alpelisib; first compound 0.1265 µM): 0.879 | relative viability (Cediranib + Alpelisib; first compound 0.4 µM): 0.934 | relative viability (Cediranib + Alpelisib; first compound 1.265 µM): 0.984 | relative viability (Cediranib + Alpelisib; first compound 4 µM): 0.922 | relative viability (Decitabine + Foretinib; first compound 0.04 µM): 0.906 | relative viability (Decitabine + Foretinib; first compound 0.1265 µM): 0.79 | relative viability (Decitabine + Foretinib; first compound 0.4 µM): 0.511 | relative viability (Decitabine + Foretinib; first compound 1.265 µM): 0.399 | relative viability (Decitabine + Foretinib; first compound 4 µM): 0.372 | relative viability (Decitabine + Pictilisib; first compound 0.04 µM): 0.737 | relative viability (Decitabine + Pictilisib; first compound 0.1265 µM): 0.794 | relative viability (Decitabine + Pictilisib; first compound 0.4 µM): 0.315 | relative viability (Decitabine + Pictilisib; first compound 1.265 µM): 0.335 | relative viability (Decitabine + Pictilisib; first compound 4 µM): 0.271 | relative viability (Decitabine + Tozasertib; first compound 0.04 µM): 0.202 | relative viability (Decitabine + Tozasertib; first compound 0.1265 µM): 0.186 | relative viability (Decitabine + Tozasertib; first compound 0.4 µM): 0.186 | relative viability (Decitabine + Tozasertib; first compound 1.265 µM): 0.192 | relative viability (Decitabine + Tozasertib; first compound 4 µM): 0.183
